Data set [1] has as its system human breast cancer (MDA-MB-231). Put plainly: cells. Type of data set: cell-based. The text has this: Human exocrine pancreatic cancer (PANC-1 and BxPC-3), non-small cell lung cancer (A549), prostate cancer (PC-3), breast cancer (MDA-MB-231), and leukemia (HL-60) were obtained from The University of Texas M. D. Anderson Cancer Center, Houston, Tex., and Normal human lung fibroblasts cells (MRC-5) was purchased from the American Type Culture Collection (ATCC). PC-3, A549 and HL-60 cells were maintained in RPMI 1640 medium supplemented with 10% (v/v) fetal bovine serum and antibiotics (1,000 units/mL penicillin-streptomycin solution, Hyclone). PANC-1 and MRC-5 was cultured in complete growth medium according to the ATCC protocols. Cells were grown at 37° C. and 5% CO2 in humidified air.
(§1) Cytotoxicity of total extracts of S. molesta was tested against PANC-1, A549, PC-3, and MRC-5. Cytotoxicity of the fractions was determined using A549 cells, a human non-small lung cancer cell line. Fractions were tested at 25, 50, and 100 μg/mL. The isolated pure compounds were tested in each of the cultured human tumor and normal cell lines at various concentrations between 1 and 100 μM with three replications. Human tumor and normal cells were inoculated into 96 well microtiter plates in 90 μL at plating densities ranging from 5,000 to 40,000 cells/well (measured by Z2 Coulter Counter of Beckman) depending on the doubling time of individual cell lines. Cell growth and viability was measured by WST-8 (Water Soluble Tetrazolium) assays following a standard protocol (Cell Counting Kit-8, Dojindo Molecular, Maryland). The WST-8 assay measured the relative activity of mitochondrial reductase enzymes in viable cells. A control WST reading (T0) before treatment was measured, then cells were continuously exposed to isolates for 48 h. After WST added and incubated for 2 h, the amount of formazan was measured by using a microplate spectrophotometer (μQuant spectrophotometer, Bio-Tek Instruments, Inc., Vermont) at 450 nm. TC or TD represents the readings of the untreated control or with tested compounds. Percent cell-growth (G) and percent cell-growth inhibition (GI) was calculated as: G=(TD−T0/TC−T0)×100; GI=[1−(TD−T0/TC−T0)]×100 for which TD≥T0; and G=(TD−T0/T0)×100; GI=[1−(TD−T0/T0)]×100 for which TD≤T0. To determine the inhibitory potency of active compounds (GI50, 50% cell-growth inhibition), tests were extended to additional concentrations (varying from 0.01 to 100 μM). Cancer drug doxorubicin was used as the positive controls in the cell-based assays.

Data set [2] concerns human non-small cell lung cancer (A549). Nature of the data set: Cytotoxicity assay (WST-8), A549. Type of data set: cell-based. The following applies: Homo sapiens. As for the experimental part:
(§2) PANC-1 and MRC-5 was cultured in complete growth medium according to the ATCC protocols. Cells were grown at 37° C. and 5% CO2 in humidified air.
as §1, with “To determine the inhibitory potency of active compounds (GI50, 50% cell-growth inhibition), tests were extended to additional concentrations (varying from 0.01 to 100 μM).” left out

In data set [3] the test system is human exocrine pancreatic cancer cells (BxPC-3). Put plainly: Cell proliferation assay (CCK-8), BxPC-3. The conditions noted are these: 12, 24, 48, 72 h, FIG. 3. The format is cell-based. Here is the method: (§3) CCK-8 (Dojindo Molecular, Maryland) was used to measure the proliferation response of salviniol (6) and montbretol (8) against human exocrine pancreatic cancer cell lines (PANC-1 and BxPC-3), according to the manufacturer's instructions. Cell were grown in growth medium plus 10% FBS and 5% antibiotics in 96-well plates and then were treated with various concentrations of test compounds and incubated for 12, 24, 48, and 72 h, respectively. The end of the incubation period, 10% CCK-8 solution was added to the wells. After 2 h incubation, the absorbance at 450 nm was measured. A calibration curve was prepared using the absorbance observed known numbers of viable cells.

For data set [4], the system named is normal human lung fibroblasts cells (MRC-5). Nature of the data set: Cytotoxicity assay (WST-8), MRC-5. The format is cell-based. Here is the method:
as §2
as §1, with “To determine the inhibitory potency of active compounds (GI50, 50% cell-growth inhibition), tests were extended to additional concentrations (varying from 0.01 to 100 μM).” left out
In general terms: Tetrazolium dyes change colour on reduction, which living cells bring about.

For data set [5], the system named is human exocrine pancreatic cancer (BxPC-3). Nature of the data set: Cytotoxicity assay (WST-8), BxPC-3. The conditions noted are these: Homo sapiens. Type of data set: cell-based.
The subject of data set [6] is human exocrine pancreatic cancer cells (PANC-1). Put plainly: Cell proliferation assay (CCK-8), PANC-1. The format is cell-based. The following applies: 12, 24, 48, 72 h, FIG. 3. As for the experimental part: as §3
Data set [7] concerns human prostate cancer (PC-3). Put plainly: Cytotoxicity assay (WST-8), PC-3. Type of data set: cell-based. The conditions noted are these: Homo sapiens. As for the experimental part: as §2
as §1, with “To determine the inhibitory potency of active compounds (GI50, 50% cell-growth inhibition), tests were extended to additional concentrations (varying from 0.01 to 100 μM).” left out

The test system of the next data set is human leukemia (HL-60). Put plainly: Cytotoxicity assay (WST-8), HL-60. The conditions noted are these: Homo sapiens. Type of data set: cell-based.
The subject of data set [8] is human exocrine pancreatic cancer (PANC-1). Put plainly: Cytotoxicity assay (WST-8), PANC-1. The format is cell-based. The conditions noted are these: Homo sapiens. Here is the method: as §2
as §1, with “To determine the inhibitory potency of active compounds (GI50, 50% cell-growth inhibition), tests were extended to additional concentrations (varying from 0.01 to 100 μM).” left out

Data set [9] in a line: Cytotoxicity assay (WST-8), MRC-5. Type of data set: cell-based, human. The conditions noted are these: human. Here is the method:
as §2
as §1, with “To determine the inhibitory potency of active compounds (GI50, 50% cell-growth inhibition), tests were extended to additional concentrations (varying from 0.01 to 100 μM).” left out

Where [10] appears, read: MDA-MB-231, 48 h, read-out: Cytotoxic activity (GI50) MDA-MB-231.
[11] abbreviates: MDA-MB-231, Table 1, read-out: Activity against human breast tumor MDA-MB-231 (GI50).
[12] abbreviates: A549, 48 h, read-out: Cytotoxic activity (GI50) A549.
Where [13] appears, read: A549, Table 1, read-out: Activity against human non-small cell lung tumor A549 (GI50) (converted).
The mark [14] stands for this setting: BXPC-3, 48 h, read-out: Cytotoxic activity (GI50) BxPC-3.
The mark [15] stands for this setting: BXPC-3, Table 1, read-out: Activity against human exocrine pancreatic tumor BxPC-3 (GI50) (converted).
Setting [16] is: 48 h, read-out: Cytotoxic activity (GI50) PC-3.
Where [17] appears, read: HL-60, 48 h, read-out: Cytotoxic activity (GI50) HL-60.
Where [18] appears, read: PANC-1, 48 h, read-out: Cytotoxic activity (GI50) PANC-1.
Where [19] appears, read: PANC-1, Table 1, read-out: Activity against human exocrine pancreatic tumor PANC-1 (GI50).

Where two headings read alike, the source gives them in different places.

In general, GI50 refers to the concentration giving 50% growth inhibition. As to `CC(C)c1cc2c(cc1O)[C@@]1(C)CCCC(C)(C)[C@@H]1C[C@H]2CC1=CCC(O)(C(C)C)CC1` (stereo partly drawn) [Compound 6, 7-(menth-1-en-4-ol)-ferruginol], the GI50 is 75 ± 1.37 µM in [1] (setting [10]); 75 µM in data set [1] (setting [11]); 62.9 ± 9.63 µM in data set [2] (setting [12]); 62.9 µM in [2] (setting [13]); 58.4 ± 6.83 µM in data set [4] (human, 48 h); 87.3 ± 24.5 µM in data set [5] (setting [14]). In addition, the GI50 in data set [5] (setting [15]) is 87.3 µM; in data set [7] (setting [16]), 54.2 ± 5.9 µM; in [7] (Table 1, read-out: Activity against human prostate tumor PC-3 (GI50) (converted)) it was 54.2 µM; in the data set on human leukemia (HL-60) (setting [17]) it was 48.1 ± 10.9 µM; with human leukemia (HL-60) (HL-60, Table 1, read-out: Activity against human leukemia HL-60 (GI50) (converted)), 48.1 µM; in data set [8] (setting [18]) it was 60.4 ± 16.2 µM. The GI50 in [8] (setting [19]) is 60.4 µM. Moreover, in data set [3], the “Effect on proliferation of BxPC-3 cells (in words)” value is given as “inhibit human pancreatic cancer cell proliferation in a dose-dependent manner”. Further, the “Effect on proliferation of PANC-1 cells (in words)” value in data set [6] is on record as “inhibit human pancreatic cancer cell proliferation in a dose-dependent manner”.

Regarding `CC(C)c1cc2c(c(O)c1O)[C@@]1(C)CCCC(C)(C)C1=C(O)C2=O` [Compound 7, 14-deoxycoleon U], the GI50 in [1] (setting [10]) is > 100 µM; in [1] (setting [11]), > 100 µM; in [2] (setting [12]) it was 9.1 ± 2.47 µM; in data set [2] (setting [13]) it was 9.1 µM; in [5] (setting [14]), 37.3 ± 7.44 µM; in [5] (setting [15]), 37.3 µM. For the same compound, the GI50 was 8.39 ± 0.86 µM in data set [7] (setting [16]), 13.3 ± 5.62 µM with human leukemia (HL-60) (setting [17]), 22.6 ± 4.18 µM in data set [8] (setting [18]) and 22.6 µM in data set [8] (setting [19]). Further, the “Toxicity against normal cell (in words)” value in data set [4] is listed as “no toxic against normal cell”. In [9], it took 24.8 µM to inhibit growth by half (GI50 at 48 h).

As to `CC(C)c1cc2c(cc1O)[C@@]1(C)CCCC(C)(C)C1=C(O)C2=O` [Compound 8, montbretol], the GI50 in data set [2] (setting [13]) is 11.1 µM; in [2] (A549, Table 7, WST-8, 48 h exposure, mean ± S.D., read-out: Cytotoxic activity (GI50) A549) it was 11.1 ± 3.16 µM; in [5] (setting [15]), 25 µM; in data set [5] (BXPC-3, Table 7, WST-8, 48 h exposure, mean ± S.D., read-out: Cytotoxic activity (GI50) BxPC-3), 25 ± 13.2 µM; in data set [7] (Table 7, WST-8, 48 h exposure, mean ± S.D., read-out: Cytotoxic activity (GI50) PC-3), 13.2 ± 2.03 µM; with human leukemia (HL-60) (HL-60, Table 7, WST-8, 48 h exposure, mean ± S.D., read-out: Cytotoxic activity (GI50) HL-60) it was 11.5 ± 3.13 µM. Moreover, the GI50 in [8] (setting [19]) worked out at 23.1 µM; in data set [8] (PANC-1, Table 7, WST-8, 48 h exposure, mean ± S.D., read-out: Cytotoxic activity (GI50) PANC-1), 23.1 ± 9.16 µM. Besides, the “Effect on proliferation of BxPC-3 cells (in words)” value in data set [3] is on record as “inhibit human pancreatic cancer cell proliferation in a dose-dependent manner”. Besides, the “Toxicity against normal cell (in words)” value in data set [4] is on record as “no toxic against normal cell”. The compound further gave a GI50 at 48 h in data set [9] of 20 µM. Further, the “Effect on proliferation of PANC-1 cells (in words)” value in [6] is “inhibit human pancreatic cancer cell proliferation in a dose-dependent manner”.

The record behind these values is US10464963B2, “Compounds from invasive Salvinias and methods of using the same” (STEPHEN F. AUSTIN STATE UNIVERSITY, priority 2013, dated 2019).
